Assay [1] has as its system IL-13-stimulated STAT6 phosphorylation in human lung bronchial epithelial BEAS-2B cell line. As to the kind of experiment: P-STAT6 BEAS-2B + IL-13 cell assay. Format: cell-based. The note with it: Homo sapiens, BEAS-2B, BEAS2B cells, IL13 stimulation; read-out: Cellular JAK1 PSTAT6 BEAS2B + IL13. The method, then:
In order to study the effect of JAK1 inhibitors in a cell line that is relevant to the cell biology of human asthma, an IL-13-stimulated STAT6 phosphorylation assay in the human lung bronchial epithelial BEAS-2B cell line was developed.
BEAS-2B cells (ATCC′ CRL-9609™) were grown in Bronchial Epithelial Growth Medium (BEGM) (Lonza Catalog No. CC-3170; Walkersville, MD; or PromoCell Catalog No. C-21060; Heidelberg, Germany). Test compound stock solutions (0.5 mM in DMSO) were serially diluted 1:2 in DMSO to generate a 10-point concentration curve (at 500× test concentration), which was further diluted by a 50-fold dilution step in BEGM to generate a 10× concentration curve (in 2% DMSO). Cells were plated at 100,000 cells/well in 200 μL of BEGM in 96-well plates and incubated for 48 hours at 37° C. in a humidified incubator. Medium was aspirated from the cells and replaced with 70 μL of fresh BEGM. Diluted test compound (10 μL; or 2% DMSO in assay medium) was added to the cells, and the plates were incubated for 1 hour at 37° C. in a humidified incubator. Twenty μL of 250 ng/mL human recombinant IL-13 (Bio Techne Catalog No. 213-ILB) was then added to the cells and incubated for 15 minutes at 37° C. Medium was aspirated from the cells and 60 μL of ice-cold 1× cell lysis buffer (Cell Signaling Technologies; Catalog No. 9803S) containing 1 mM PMSF was added to the cells. Assay plates were incubated at −80° C. for at least 1 hour. P-STAT6 was measured by coating GAR plates (MSD; Catalog No. L45RA-1) with rabbit anti-human total STAT6 antibody (Cell Signaling Technologies; Catalog No. 9362S), incubating the cell lysates in the coated plates overnight at 4° C., and then detecting with mouse anti-phospho-STAT6 (Tyr641) Clone 16E12 antibody (Millipore; Catalog No. 05-590, custom labeled by MSD with SULFO-tag) using standard MSD plate processing, washing, and detection protocols. Plates were read on the MESO SECTOR 5600.
Data analysis was performed by subtracting negative control values from all wells and determining percent of control using the positive control values; the IC50 was determined with a four-parameter logistic fit model as shown in Equation 4.

Assay [2] addresses Recombinant human JAK2 kinase domain protein (Residues 812-1132) (Homo sapiens, UniProt O60674). The assay can be described thus: JAK2 biochemical assay (LabChip mobility shift, Ki). Particulars: Biochem JAK2 Ki.
In assay [3] the target is T1, recombinant human JAK1 kinase domain protein (Residues 854-1154) (Homo sapiens, UniProt P23458).
T1 construct: human JAK1 kinase domain protein (Residues 854-1154); purchased Proteros Biostructures GmbH (Martinsried, Germany); host or cells: insect cells
T1 sequence (P23458 854-1154): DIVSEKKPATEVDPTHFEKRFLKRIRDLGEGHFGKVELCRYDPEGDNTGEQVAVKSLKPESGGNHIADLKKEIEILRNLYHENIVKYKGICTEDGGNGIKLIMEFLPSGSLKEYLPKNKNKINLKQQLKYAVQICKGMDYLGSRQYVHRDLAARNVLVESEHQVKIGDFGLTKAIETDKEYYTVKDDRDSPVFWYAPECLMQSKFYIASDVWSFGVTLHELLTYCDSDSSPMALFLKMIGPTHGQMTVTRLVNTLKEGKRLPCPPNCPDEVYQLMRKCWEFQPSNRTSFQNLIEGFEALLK
The assay can be described thus: JAK1 biochemical assay (LabChip mobility shift, Ki). Particulars: read-out: Biochem JAK1 Ki.

The values below come from patent publication US12528812B2 (Genentech, Inc., priority 2020, dated 2026).

Sequence of Recombinant human JAK2 kinase domain protein (Residues 812-1132) (O60674 812-1132): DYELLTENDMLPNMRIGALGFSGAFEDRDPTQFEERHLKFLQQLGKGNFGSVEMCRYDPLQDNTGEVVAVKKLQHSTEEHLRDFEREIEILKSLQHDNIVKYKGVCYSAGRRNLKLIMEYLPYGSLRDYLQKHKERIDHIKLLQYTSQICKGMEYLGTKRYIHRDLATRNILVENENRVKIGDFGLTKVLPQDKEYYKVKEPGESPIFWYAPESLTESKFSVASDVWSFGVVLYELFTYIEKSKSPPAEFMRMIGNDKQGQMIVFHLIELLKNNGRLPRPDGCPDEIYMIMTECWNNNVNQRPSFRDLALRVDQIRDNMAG

The term Ki denotes a dissociation constant, usually derived from enzyme kinetics or from competition with a known ligand. `CN1CCC[C@H]1Cn1cc(NC(=O)c2cnn3cccnc23)c(-c2cc(Oc3ccccc3)ccc2OC(F)F)n1` (racemic) [Example 31, N-[3-[2-(difluoromethoxy)-5-phenoxy-phenyl]-1-[[rac-(2R)-1-methylpyrrolidin-2-yl]methyl]pyrazol-4-yl]pyrazolo[1,5-a]pyrimidine-3-carboxamide]: in assay [1], the IC50 came to 9.2 nM. Besides, the Ki was 0.86 nM in assay [2] and 0.37 nM in assay [3].
For `CN1CCC[C@H]1Cn1cc(NC(=O)c2cnn3cccnc23)c(-c2cc(Oc3cccc(CC#N)c3)ccc2OC(F)F)n1` (racemic) [Example 37, N-[3-[5-[3-(cyanomethyl)phenoxy]-2-(difluoromethoxy)phenyl]-1-[[rac-(2R)-1-methylpyrrolidin-2-yl]methyl]pyrazol-4-yl]pyrazolo[1,5-a]pyrimidine-3-carboxamide], in assay [1], the IC50 is 16 nM. For the same compound, the Ki in assay [2] was 1.4 nM; in assay [3], 0.55 nM.
Turning to `Cn1cc(NC(=O)c2cnn3cccnc23)c(-c2cc(Oc3cccc(C4CNCCO4)c3)ccc2OC(F)F)n1` (racemic) [Example 38, N-[3-[2-(difluoromethoxy)-5-[3-[rac-(2R)-morpholin-2-yl]phenoxy]phenyl]-1-methyl-pyrazol-4-yl]pyrazolo[1,5-a]pyrimidine-3-carboxamide], the IC50 in assay [1] was found to be 22 nM. Besides, the Ki in assay [2] stood at 0.38 nM; in assay [3], 0.52 nM.
Take `O=C(Nc1c[nH]nc1-c1cc(Oc2ccccc2)ccc1OC(F)F)c1cnn2cccnc12` [Example 1, N-[3-[2-(difluoromethoxy)-5-phenoxy-phenyl]-1H-pyrazol-4-yl]pyrazolo[1,5-a]pyrimidine-3-carboxamide]: the Ki in assay [2] turned out to be 0.096 nM; in assay [3], 0.18 nM.
Taken in the same sequence, the figures for `Cn1cc(NC(=O)c2cnn3cccnc23)c(-c2cc(Oc3cnn(CCN4CCOCC4)c3)ccc2OC(F)F)n1` [Example 68, N-[3-[2-(difluoromethoxy)-5-[1-(2-morpholinoethyl)pyrazol-4-yl]oxy-phenyl]-1-methyl-pyrazol-4-yl]pyrazolo[1,5-a]pyrimidine-3-carboxamide] were 2.9 nM and 6.2 nM.
Consider `CNC(=O)c1cncc(Oc2ccc(OC(F)F)c(-c3nn(C)cc3NC(=O)c3cnn4cccnc34)c2)c1` [Example 158, N-[3-[2-(difluoromethoxy)-5-[[5-(methylcarbamoyl)-3-pyridyl]oxy]phenyl]-1-methyl-pyrazol-4-yl]pyrazolo[1,5-a]pyrimidine-3-carboxamide], for which the IC50 in assay [1] is 37 nM. Further, the Ki in assay [3] amounted to 0.62 nM.
As to `CCCN(CCCO)Cc1ccc(Oc2ccc(OC(F)F)c(-c3nn(C)cc3NC(=O)c3cnn4cccnc34)c2)cc1` [Example 161, N-(3-(2-(difluoromethoxy)-5-(4-(((3-hydroxypropyl) (propyl)amino)methyl)phenoxy)phenyl)-1-methyl-1H-pyrazol-4-yl)pyrazolo[1,5-a]pyrimidine-3-carboxamide], the figures for the Ki in assay [2] and in assay [3] were 2.2 nM and 6 nM, respectively.
As for `Cn1cc(NC(=O)c2cnn3cccnc23)c(-c2cc(Oc3cnn(CCBr)c3)ccc2OC(F)F)n1` [Example 214, N-[3-[5-[1-(2-bromoethyl)pyrazol-4-yl]oxy-2-(difluoromethoxy)phenyl]-1-methyl-pyrazol-4-yl]pyrazolo[1,5-a]pyrimidine-3-carboxamide], the Ki in assay [2] stood at 0.68 nM; in assay [3] it was 1.1 nM.
Taken in the same sequence, the figures for `Cn1cc(NC(=O)c2cnn3cccnc23)c(-c2cc(Oc3cnn(CCC4CO4)c3)ccc2OC(F)F)n1` (stereo not drawn) [Example 215, N-[3-[2-(difluoromethoxy)-5-[1-[2-(oxiran-2-yl)ethyl]pyrazol-4-yl]oxy-phenyl]-1-methyl-pyrazol-4-yl]pyrazolo[1,5-a]pyrimidine-3-carboxamide] were 1.1 nM and 1.9 nM.
